Results published in patent US7476517B2, “Virus like particles, their preparation and their use preferably in pharmaceutical screening and functional genomics” (Evotec AG, priority 1999, dated 2009).

biological target: T1, human ETA receptor (Homo sapiens, UniProt P25101); assay: ETA receptor binding assay with FIDA analysis; settings: 1 μM non-labelled ligand; 2 nM TAMRA-labeled endothelin-1; membrane vesicles from CHO cells or VLPs from Sf9 cells; 30 minutes at room temperature
T1 construct: Flag; made in house; host or cells: Sf9 insect cells co-infected with recombinant baculoviruses; VLPs pelleted from the culture supernatant
T1 sequence (P25101 21-427): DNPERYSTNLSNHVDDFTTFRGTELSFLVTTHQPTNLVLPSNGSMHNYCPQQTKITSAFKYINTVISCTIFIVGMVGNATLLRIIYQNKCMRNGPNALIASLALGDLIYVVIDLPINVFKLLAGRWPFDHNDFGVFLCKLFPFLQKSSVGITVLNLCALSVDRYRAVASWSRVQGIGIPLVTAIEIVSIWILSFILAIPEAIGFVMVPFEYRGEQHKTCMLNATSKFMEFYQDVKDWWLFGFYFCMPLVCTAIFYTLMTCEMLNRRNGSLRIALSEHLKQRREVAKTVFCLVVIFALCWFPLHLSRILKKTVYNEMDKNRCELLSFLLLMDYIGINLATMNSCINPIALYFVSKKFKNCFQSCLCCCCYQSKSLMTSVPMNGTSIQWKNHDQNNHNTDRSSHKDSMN
Protocol: After 30 minutes incubation at room temperature the mixture was analysed by FIDA using a beam scanner and 543 nm laser light for excitation.

Row | Molecule | competition with TAMRA-labeled endothelin-1 for binding to the ETA receptor
1 | C[C@H](N)C(=O)NCC(=O)N[C@H]1CSSC[C@@H](C(=O)O)NC(=O)[C@H](CO)NC(=O)[C@H]([C@@H](C)O)NC(=O)[C@H](Cc2ccccc2)NC(=O)[C@H]([C@@H](C)O)NC(=O)[C@H](CCCCN)NC(=O)[C@H](Cc2c[nH]c3ccccc23)NC(=O)[C@H](Cc2ccccc2)NC(=O)[C@H](Cc2ccccc2)NC(=O)[C@H](CC(N)=O)NC(=O)[C@H](CCCCN)NC1=O [somatostatin-14] | non-competing ligand
2 | big endothelin-1 | non-competing ligand
3 | endothelin-1 | competing ligand
